The test system of assay [1] is N. gonorrhoeae WHO Z. Kind of assay: Liquid broth MIC in Fastidious broth. Type of assay: cell-based. The conditions noted are these: Neisseria gonorrhoeae. In short, it runs like this: (§1)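 Mosaic PBP2 producers; colonies from 24 h chocolate agar, saline suspension, OD600. Fastidious broth, 2-fold dilutions, 5×10^5 CFU/mL. ~24 h, 36 °C, 5% CO2; visual MIC, <10% growth cutoff.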

For assay [2], the system named is N. gonorrhoeae ATCC 49226. Kind of assay: Liquid broth MIC in Fastidious broth. Type of assay: cell-based. The conditions noted are these: Neisseria gonorrhoeae, ATCC49226, Fastidious broth. In short, it runs like this:
(§2)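 Colonies were swabbed from chocolate agar after 24 h growth and standardised by optical density at 600 nm. Compounds were serially diluted twofold in Fastidious broth, and bacteria added to give 5×10^5 CFU/mL. After about 24 h at 36 °C in 5% CO2, the lowest concentration allowing under 10% growth was taken as MIC.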

In assay [3] the test system is N. gonorrhoeae WHO G. Kind of assay: Liquid broth MIC in Fastidious broth. Type of assay: cell-based. Conditions: Neisseria gonorrhoeae, Fastidious broth. In short, it runs like this: as §2
Assay [4] has as its system N. gonorrhoeae WHO K. Kind of assay: Liquid broth MIC in Fastidious broth. The conditions noted are these: Neisseria gonorrhoeae. Type of assay: cell-based. In short, it runs like this: as §1
Assay [5] has as its system N. gonorrhoeae H041. In words: Liquid broth MIC in Fastidious broth. Type of assay: cell-based. The conditions noted are these: Neisseria gonorrhoeae. In short, it runs like this: as §1
Assay [6] relates to N. gonorrhoeae WHO L. In words: Liquid broth MIC in Fastidious broth. Type of assay: cell-based. Conditions: Neisseria gonorrhoeae, Fastidious broth. The method, boiled down:
as §2

Assay [7] has as its system N. gonorrhoeae FA1090. Kind of assay: Liquid broth MIC in Fastidious broth. The conditions noted are these: Neisseria gonorrhoeae, Fastidious broth. Type of assay: cell-based. In short, it runs like this:
as §2

Assay [8] has as its system N. gonorrhoeae WHO Q. Kind of assay: Liquid broth MIC in Fastidious broth. The format is cell-based. Conditions: Neisseria gonorrhoeae. In short, it runs like this: as §1
Assay [9] deals with T1, E. coli K12 PBP3 (Escherichia coli, UniProt P0AD68).
T1 construct: made in house
Kind of assay: biochemical. The format is binding. In short, it runs like this:
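Fluorescence polarization (ex 490/em 520 nm) competition of inhibitors against Bocillin-FL at 0.1 μM, read up to 60 min. Final PBP levels: E. coli PBP3 1.5 μM; A. baumannii PBP2 2.5 μM, PBP3 0.2 μM in Tris pH 8.0/NaCl/glycerol/Tween 20; N. gonorrhoeae PBP2 […] in Hepes pH 8.0/NaCl/glycerol. EC50 = concentration halving PBP-bound Bocillin-FL.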

Assay [10] concerns the target T2, P. aeruginosa PBP3 (Pseudomonas aeruginosa, UniProt G3XD46).
T2 construct: made in house
In words: Bocillin-FL fluorescence polarization competition binding assay, P. aeruginosa PBP3. The conditions noted are these: fluorescence polarization competition binding assay using Bocillin-FL. The method, boiled down: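 Binding of boronic acid inhibitors to purified Pseudomonas aeruginosa (PA01) PBP3 was measured by fluorescence polarization competition with Bocillin-FL, a fluorescent penicillin V. Reactions of 80 μl contained 0.75 μM PBP3 and 0.1 μM Bocillin-FL in 50 mM Hepes (pH 8.0), 300 mM NaCl and 5% (v/v) glycerol, in black 384-well plates. FP (Excitation 490 nm, Emission 520 nm) was read for up to 60 minutes. EC50 is the concentration that halves PBP-bound Bocillin-FL.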

The mark [11] stands for this setting: N. gonorrhoeae strain ATCC 49226, read-out: Minimum Inhibitory Concentration, N. gonorrhoeae ATCC 49226.
The mark [12] stands for this setting: N. gonorrhoeae strain WHO G, read-out: Minimum Inhibitory Concentration, N. gonorrhoeae WHO G.
Where [13] appears, read: read-out: Minimum Inhibitory Concentration, N. gonorrhoeae WHO K.
The mark [14] stands for this setting: H041, read-out: Minimum Inhibitory Concentration, N. gonorrhoeae H041.
[15] abbreviates: N. gonorrhoeae strain WHO L, read-out: Minimum Inhibitory Concentration, N. gonorrhoeae WHO L.
The mark [16] stands for this setting: N. gonorrhoeae strain FA1090, read-out: Minimum Inhibitory Concentration, N. gonorrhoeae FA1090.

pEC50: −log10 of the molar value. Values after ≈ are worked out from the molar mass of the structure shown. Where two headings read alike, the source gives them in different places.

T1 sequence (P0AD68 1-577): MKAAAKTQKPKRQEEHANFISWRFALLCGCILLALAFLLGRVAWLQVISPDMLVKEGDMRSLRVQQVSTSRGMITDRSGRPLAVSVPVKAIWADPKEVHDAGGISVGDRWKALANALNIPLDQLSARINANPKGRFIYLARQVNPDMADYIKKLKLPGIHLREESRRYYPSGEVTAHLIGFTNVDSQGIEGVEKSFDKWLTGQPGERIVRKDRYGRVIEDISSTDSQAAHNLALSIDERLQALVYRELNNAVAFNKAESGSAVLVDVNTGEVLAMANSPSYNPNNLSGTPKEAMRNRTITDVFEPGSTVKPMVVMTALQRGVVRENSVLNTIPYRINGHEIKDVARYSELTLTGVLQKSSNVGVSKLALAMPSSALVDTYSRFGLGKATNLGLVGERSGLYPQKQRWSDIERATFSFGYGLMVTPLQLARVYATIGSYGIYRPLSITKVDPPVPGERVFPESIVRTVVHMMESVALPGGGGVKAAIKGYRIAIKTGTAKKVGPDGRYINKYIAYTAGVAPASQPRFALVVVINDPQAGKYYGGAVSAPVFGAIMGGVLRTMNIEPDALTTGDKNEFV
T2 sequence (G3XD46 whole entry): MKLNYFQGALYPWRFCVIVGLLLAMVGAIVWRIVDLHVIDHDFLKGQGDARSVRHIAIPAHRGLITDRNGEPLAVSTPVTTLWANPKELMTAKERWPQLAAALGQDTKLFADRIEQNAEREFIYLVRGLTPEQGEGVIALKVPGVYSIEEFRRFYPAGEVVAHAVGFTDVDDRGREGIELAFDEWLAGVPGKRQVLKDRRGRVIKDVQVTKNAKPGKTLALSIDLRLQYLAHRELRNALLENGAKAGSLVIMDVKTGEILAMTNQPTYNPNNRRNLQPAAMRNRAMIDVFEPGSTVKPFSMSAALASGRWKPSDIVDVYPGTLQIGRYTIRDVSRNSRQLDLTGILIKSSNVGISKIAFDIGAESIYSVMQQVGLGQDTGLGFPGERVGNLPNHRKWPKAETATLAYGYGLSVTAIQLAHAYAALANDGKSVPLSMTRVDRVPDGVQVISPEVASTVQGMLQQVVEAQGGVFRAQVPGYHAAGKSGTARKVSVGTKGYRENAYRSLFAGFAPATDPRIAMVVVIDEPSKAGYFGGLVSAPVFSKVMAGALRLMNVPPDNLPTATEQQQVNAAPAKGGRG

Regarding `CCN1CCN(C(=O)N[C@@H](C(=O)N[C@H]2Cc3cccc(C(=O)O)c3OB2O)c2c(O)cc(O)cc2F)C(=O)C1=O` (single isomer, unassigned) [Example 182], the MIC in assay [1] (read-out: Minimum Inhibitory Concentration, N. gonorrhoeae WHO Z) is 16 to 32 µg/mL (≈ 28.7 to 57.3 µM); in assay [2] (setting [11]), 4 to 8 µg/mL (≈ 7.16 to 14.3 µM); in [3] (setting [12]) it was 1 to 2 µg/mL (≈ 1.79 to 3.58 µM); in [4] (setting [13]) it was 16 to 32 µg/mL (≈ 28.7 to 57.3 µM); in assay [5] (setting [14]), greater than 64 µg/mL; in assay [6] (setting [15]), 16 to 32 µg/mL (≈ 28.7 to 57.3 µM). For the same compound, the MIC is less than 0.125 µg/mL in [7] (setting [16]) and 16 to 32 µg/mL (≈ 28.7 to 57.3 µM) in [8] (read-out: Minimum Inhibitory Concentration, N. gonorrhoeae WHO Q). In addition, the pEC50 in assay [9] is greater than 4.52.
On to `O=C(NCCCN1CCN(C(=O)NC(C(=O)N[C@H]2Cc3cccc(C(=O)O)c3OB2O)c2ncc(O)cc2F)C(=O)C1=O)c1ccc(O)c(O)c1Cl` (stereo partly drawn) [Example 1, (3R)-3-(2-(4-(3-(2-chloro-3,4-dihydroxybenzamido)propyl)-2,3-dioxopiperazine-1-carboxamido)-2-(3-fluoro-5-hydroxypyridin-2-yl)acetamido)-2-hydroxy-3,4-dihydro-2H-benzo[e][1,2]oxaborinine-8-carboxylic acid], for which the negative-log EC50 (pEC50) in assay [9] was greater than 4.52. Also, the “P. aeruginosa PBP3 Potency” value in assay [10] is given as “D (D represents a potency <10 μM)”.
`C[C@H]1CN(CCNC(=O)c2ccc(O)c(O)c2Cl)C(=O)C(=O)N1C(=O)NC(C(=O)N[C@H]1Cc2cccc(C(=O)O)c2OB1O)c1ncc(O)cc1F` (stereo partly drawn) [Example 2, (3R)-3-(2-((S)-4-(2-(2-chloro-3,4-dihydroxybenzamido)ethyl)-6-methyl-2,3-dioxopiperazine-1-carboxamido)-2-(3-fluoro-5-hydroxypyridin-2-yl)acetamido)-2-hydroxy-3,4-dihydro-2H-benzo[e][1,2]oxaborinine-8-carboxylic acid]: the MIC in assay [2] (setting [11]) is greater than 64 µg/mL; in assay [3] (setting [12]) it was greater than 64 µg/mL; in assay [4] (setting [13]), greater than 64 µg/mL; in assay [5] (setting [14]) it was greater than 64 µg/mL; in assay [6] (setting [15]), greater than 64 µg/mL; in assay [7] (setting [16]), 4 to 8 µg/mL (≈ 5.38 to 10.8 µM). Also, the pEC50 in [9] was greater than 4.52. The “P. aeruginosa PBP3 Potency” value in [10] is given as “D (D represents a potency <10 μM)”.
`O=C(NCCCN1CCN(C(=O)NC(C(=O)N[C@H]2Cc3ccc(F)c(C(=O)O)c3OB2O)c2ncc(O)cc2F)C(=O)C1=O)c1ccc(O)c(O)c1Cl` (stereo partly drawn) [Example 3, (3R)-3-(2-(4-(3-(2-chloro-3,4-dihydroxybenzamido)propyl)-2,3-dioxopiperazine-1-carboxamido)-2-(3-fluoro-5-hydroxypyridin-2-yl)acetamido)-7-fluoro-2-hydroxy-3,4-dihydro-2H-benzo[e][1,2]oxaborinine-8-carboxylic acid] had a negative-log EC50 (pEC50) in [9] greater than 4.52. The “P. aeruginosa PBP3 Potency” value in [10] was “D (D represents a potency <10 μM)”.
Take `Nc1nc(C(NC(=O)N2CCN(CCNC(=O)c3ccc(O)c(O)c3Cl)C(=O)C2=O)C(=O)N[C@H]2Cc3ccc(F)c(C(=O)O)c3OB2O)c(F)s1` (stereo partly drawn) [Example 4, (3R)-3-(2-(2-amino-5-fluorothiazol-4-yl)-2-(4-(2-(2-chloro-3,4-dihydroxybenzamido)ethyl)-2,3-dioxopiperazine-1-carboxamido)acetamido)-7-fluoro-2-hydroxy-3,4-dihydro-2H-benzo[e][1,2]oxaborinine-8-carboxylic acid]: the MIC in assay [2] (setting [11]) was 16 to 32 µg/mL (≈ 21.3 to 42.6 µM); in [3] (setting [12]) it was 4 to 8 µg/mL (≈ 5.32 to 10.6 µM); in assay [4] (setting [13]) it was greater than 64 µg/mL; in [5] (setting [14]) it was greater than 64 µg/mL; in assay [6] (setting [15]), greater than 64 µg/mL; in [7] (setting [16]), 4 to 8 µg/mL (≈ 5.32 to 10.6 µM). The compound further gave a negative logarithm of the EC50 (pEC50) in assay [9] greater than 4.52. The “P. aeruginosa PBP3 Potency” value in assay [10] is given as “D (D represents a potency <10 μM)”.
As for `O=C(NCCN1CCN(C(=O)NC(C(=O)N[C@H]2Cc3ccc(F)c(C(=O)O)c3OB2O)c2ncc(O)cc2F)C(=O)C1=O)c1c(F)cc(O)c(O)c1Cl` (stereo partly drawn) [Example 5, (3R)-3-(2-(4-(2-(2-chloro-6-fluoro-3,4-dihydroxybenzamido)ethyl)-2,3-dioxopiperazine-1-carboxamido)-2-(3-fluoro-5-hydroxypyridin-2-yl)acetamido)-7-fluoro-2-hydroxy-3,4-dihydro-2H-benzo[e][1,2]oxaborinine-8-carboxylic acid], the MIC is greater than 64 µg/mL in [2] (setting [11]); 16 to 32 µg/mL (≈ 20.9 to 41.8 µM) in assay [3] (setting [12]); greater than 64 µg/mL in assay [4] (setting [13]); greater than 64 µg/mL in assay [5] (setting [14]); greater than 64 µg/mL in assay [6] (setting [15]); 4 to 8 µg/mL (≈ 5.23 to 10.5 µM) in assay [7] (setting [16]). The compound also gave a pEC50 in assay [9] greater than 4.52. Moreover, the “P. aeruginosa PBP3 Potency” value in assay [10] is “D (D represents a potency <10 μM)”.
With `Nc1nc(/C(=N/OC[C@H](NC(=O)c2ccc(O)c(O)c2Cl)C(=O)O)C(=O)N[C@H]2Cc3cccc(C(=O)O)c3OB2O)cs1` [Example 6, (R)-3-((Z)-2-(2-aminothiazol-4-yl)-2-(((S)-2-carboxy-2-(2-chloro-3,4-dihydroxybenzamido)ethoxy)imino)acetamido)-2-hydroxy-3,4-dihydro-2H-benzo[e][1,2]oxaborinine-8-carboxylic acid], the MIC in assay [2] (setting [11]) is greater than 64 µg/mL; in [3] (setting [12]) it was 16 to 32 µg/mL (≈ 25.2 to 50.5 µM); in assay [4] (setting [13]) it was greater than 64 µg/mL; in assay [5] (setting [14]), greater than 64 µg/mL; in assay [6] (setting [15]), greater than 64 µg/mL; in [7] (setting [16]) it was 16 to 32 µg/mL (≈ 25.2 to 50.5 µM). This compound also had a pEC50 in assay [9] of 3.30 to 4.52. The “P. aeruginosa PBP3 Potency” value in [10] is “D (D represents a potency <10 μM)”.
Regarding `CCN1CCN(C(=O)NC(C(=O)N[C@H]2Cc3ccc(F)c(C(=O)O)c3OB2O)c2ncc(C(=O)O)cc2F)C(=O)C1=O` (stereo partly drawn) [Example 33, 6-(2-(((R)-8-carboxy-7-fluoro-2-hydroxy-3,4-dihydro-2H-benzo[e][1,2]oxaborinin-3-yl)amino)-1-(4-ethyl-2,3-dioxopiperazine-1-carboxamido)-2-oxoethyl)-5-fluoronicotinic acid], the MIC in [2] (setting [11]) was 16 to 32 µg/mL (≈ 27.2 to 54.3 µM); in [3] (setting [12]), 16 to 32 µg/mL (≈ 27.2 to 54.3 µM); in [4] (setting [13]), greater than 64 µg/mL; in [5] (setting [14]), greater than 64 µg/mL; in [6] (setting [15]), greater than 64 µg/mL; in [7] (setting [16]), 4 to 8 µg/mL (≈ 6.79 to 13.6 µM). In addition, the “P. aeruginosa PBP3 Potency” value in [10] is “D (D represents a potency <10 μM)”.
As to `CCN1CCN(C(=O)N[C@H](C(=O)N[C@H]2Cc3ccc(F)c(C(=O)O)c3OB2O)c2ccc(O)c(O)c2)C(=O)C1=O` [Example 210, (R)-3-((S)-2-(3,4-dihydroxyphenyl)-2-(4-ethyl-2,3-dioxopiperazine-1-carboxamido)acetamido)-7-fluoro-2-hydroxy-3,4-dihydro-2H-benzo[e][1,2]oxaborinine-8-carboxylic acid], the MIC was greater than 64 µg/mL in [1] (read-out: Minimum Inhibitory Concentration, WHO Z); greater than 64 µg/mL in assay [2] (N. gonorrhoeae ATCC 49226, read-out: Minimum Inhibitory Concentration, ATCC 49226); greater than 64 µg/mL in assay [3] (N. gonorrhoeae WHO G, read-out: Minimum Inhibitory Concentration, WHO G); greater than 64 µg/mL in assay [4] (read-out: Minimum Inhibitory Concentration, WHO K); greater than 64 µg/mL in [5] (H041, read-out: Minimum Inhibitory Concentration, H041); greater than 64 µg/mL in assay [6] (N. gonorrhoeae WHO L, read-out: Minimum Inhibitory Concentration, WHO L). The MIC is greater than 64 µg/mL in assay [7] (N. gonorrhoeae FA1090, read-out: Minimum Inhibitory Concentration, FA1090) and greater than 64 µg/mL in assay [8] (read-out: Minimum Inhibitory Concentration, WHO Q). The same compound had a pEC50 in [9] of less than 3.30.
For `NCCN1CCN(C(=O)N[C@@H](C(=O)N[C@H]2Cc3ccc(F)c(C(=O)O)c3OB2O)c2c(F)c(F)c(O)c(O)c2Cl)C(=O)C1=O` [Example 226, (R)-3-((R)-2-(4-(2-aminoethyl)-2,3-dioxopiperazine-1-carboxamido)-2-(2-chloro-5,6-difluoro-3,4-dihydroxyphenyl)acetamido)-7-fluoro-2-hydroxy-3,4-dihydro-2H-benzo[e][1,2]oxaborinine-8-carboxylic acid], in assay [10], the “P. aeruginosa PBP3 Potency” value was “B (B represents a potency between 30 μM and 500 μM inclusive)”.

Source of the values: US20230114728A1 (Venatorx Pharmaceuticals, Inc., priority 2019, published 2023).
